Molecules are shown by their SMILES. Where two headings read alike, the source gives them in different places. A value given as a limit tells only on which side of the number the result lay.

The results in this text go back to patent US9051325B2, “Bicyclic [5,6] imidazo pyrimodone compounds for use in the treatment of diseases or conditions mediated by Lp-PLA2” (GlaxoSmithKline Intellectual Property Development Limited, priority 2013, dated 2015).

Test [1] deals with T1, recombinant human Lp-PLA2 (Homo sapiens, UniProt Q13093).
T1 sequence (Q13093 22-441): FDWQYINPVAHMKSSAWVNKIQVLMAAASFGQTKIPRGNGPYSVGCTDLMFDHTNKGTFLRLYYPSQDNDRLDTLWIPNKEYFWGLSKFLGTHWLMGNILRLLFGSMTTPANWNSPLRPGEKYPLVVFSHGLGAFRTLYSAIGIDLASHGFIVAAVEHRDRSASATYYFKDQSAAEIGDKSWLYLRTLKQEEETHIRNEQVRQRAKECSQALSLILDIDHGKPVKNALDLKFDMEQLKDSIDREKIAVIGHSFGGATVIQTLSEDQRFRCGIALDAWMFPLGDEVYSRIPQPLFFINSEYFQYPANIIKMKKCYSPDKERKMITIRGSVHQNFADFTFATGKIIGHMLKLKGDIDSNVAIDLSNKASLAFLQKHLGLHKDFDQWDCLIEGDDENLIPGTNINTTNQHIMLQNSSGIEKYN
Kind of test: Recombinant human Lp-PLA2 assay (rhLp-PLA2, PED6 assay). The format is biochemical. An excerpt:
(1) Recombinant Human Lp-PLA2 Assay (rhLp-PLA2) (Also Referred to as “PED6” Assay)
N-((6-(2,4-dinitrophenyl)amino)-hexanoyl)-2-(4,4-difluoro-5,7-dimethyl-4-bora-3a,4a-diaza-s-indacene-3-pentanoyl)-1-hexadecanoyl-sn-glycero-3-phosphoethanolamine, triethylammonium salt (PED6) is a commercially available fluorescently-labeled phospholipid, which is commercially available from Invitrogene and Molecular Probes. There is a quenching […] and a Bodipy fluorescein (FL) group in the sn2 position. Upon cleavage with Lp-PLA2, the Bodipy FL group is liberated and then may result in an increase in fluorescence. Inhibitors of Lp-PLA2 therefore prevent this cleavage and no fluorescent increase is observed.
The PED6 assay was run as an unquenched 10 μL assay. The source plate containing the compounds to be tested was prepared by making 1:3 (by volume) serial dilution of the compounds within DMSO on 384-well microplate. Then, 0.01 μL of the compounds on compound source plate were transferred into 384 well Greiner 784076 (black) plates using ECHO liquid dispenser. 5 μL of recombinant human Lp-PLA2 enzyme (4 nM (or […]) rhLp-PLA2 in assay buffer of 50 mM HEPES, pH 7.4, 150 mM NaCl, 1 mM CHAPS) was added to each well of the plate. Plates were centrifuged for 10 sec at 500 rpm. After 30 minutes preincubation, 5 μL of substrate ([…] PED6 [from 5 mM DMSO stock] in assay buffer of 50 mM HEPES, pH 7.4, 150 mM NaCl, 1 mM CHAPS) was added to 384 well Greiner 784076 (black) plates. Plates were centrifuged for 10 sec at 500 rpm. The plate was covered to protect it from light and incubated for 20 min at room temperature. The plates were read for fluorescence intensity at ex: 480/em: 540 using ViewLux microplate imager for Envision spectrofluoroimeters pIC50 data, curve and QC analysis was conducted by using XL fit module in Excel.

A further test addresses T2, Lp-PLA2 in human plasma (Homo sapiens, UniProt Q13093).
T2 construct: from tissue; host or cells: pooled human plasma
T2 sequence (Q13093 22-441): T1 sequence (Q13093 22-441)
Briefly: Lp-PLA2 human plasma assay (Thio-PAF assay). In kind it is biochemical. Conditions: pooled human plasma; lower bounds; read-out: pIC50 values in the thio-PAF assay (converted). An excerpt:
(3) Lipoprotein-Associated Phospholipase A2 (Lp-PLA2) Human Plasma Assay (Also Referred to as “Thio-PAF assay”)
The human plasma assay utilizes a thioester analog of PAF (phosphatidylcholine), where hydrolysis yields to the formation of a phospholipid containing a free thiol group. The amount of thiol is quantitated continuously by reacting with CPM (7-diethylamino-3-(4′-maleimidylphenyl)-4-methylcoumarin), a maleimide which increases in fluoresence after Michael addition of thiols. This assay may detect the activity of Lp-PLA2 in human plasma, as determined by specific inhibition by Lp-PLA2 inhibitors.
The thio-PAF assay was run as a quenched 15 μL assay. Compounds source plate was prepared by making 1:3 (by volume) serial dilution of the compounds into pure DMSO on 384-well microplate. 0.01 μL of compounds on compound source plate were transferred to 384 well Greiner 784076 (black) low-volume plates by ECHO liquid dispenser. 8 μL pooled human plasma, which was previously aliquoted and frozen, was added. Plates were centrifuged for 10 sec at 500 rpm. After 30 minutes preincubation, 2 μL of substrate solution comprising 2.5 mM 2-thio-PAF [from ethanol stock], 32 μM CPM [from a DMSO stock] and 3.2 mM NEM (N-ethylmaleimide) [made fresh daily in DMSO] in assay buffer of 50 mM HEPES, pH 7.4, 150 mM NaCl, 1 mM CHAPS was added to 384 well Greiner 784076 (black) low-volume plates by BRAVO liquid handling station. After 2 mins, reaction was quenched with 5 μL of 5% aqueous trifluoroacetic acid (TFA). Plates were covered to protect from light and incubated for 40 min at room temperature. Plates were read at ex: 380/em: 485 using-Envision microplate reader. PIC50 data, curve and QC analysis were conducted by using XLFit module in Excel.

Where [2] appears, read: lower bounds, read-out: pIC50 values in the PED6 assay (converted).
The mark [3] stands for this setting: read-out: rhLp-PLA2 (PED6 assay) (pIC50) (converted).

As for `CC1(C)Cn2c(cc(OCc3ccc(Oc4ccnc(F)c4)c(F)c3)nc2=O)N1` [Example E68, 7-((3-fluoro-4-((2-fluoropyridin-4-yl)oxy)benzyl)oxy)-2,2-dimethyl-2,3-dihydroimidazo[1,2-c]pyrimidin-5(1H)-one], the IC50 in test [1] (setting [2]) was no more than 1 nM; on Lp-PLA2 in human plasma, no more than 100 nM.
For `[2H]C([2H])(Oc1cc2n(c(=O)n1)CC(C)(C)N2C)c1cc(F)cc(F)c1` [Example E93, 7-(dideutero(3,5-difluorobenzyl)oxy)-1,2,2-trimethyl-2,3-dihydroimidazo[1,2-c]pyrimidin-5(1H)-one], in that order: no more than 10 nM and no more than 100 nM.
In the case of `C[C@H]1Cn2c(cc(OCc3ccc(F)c(C#N)c3)nc2=O)N1` [Example E74, (S)-2-fluoro-5-(((2-methyl-5-oxo-1,2,3,5-tetrahydroimidazo[1,2-c]pyrimidin-7-yl)oxy)methyl)benzonitrile], the IC50 is no more than 10 nM in test [1] (setting [2]) and no more than 100 nM on Lp-PLA2 in human plasma.
The like results for `CC1(C)Cn2c(cc(OCc3cc(F)c(Oc4ccnc(Cl)c4)c(F)c3)nc2=O)N1` [Example E45, 7-((4-((2-chloropyridin-4-yl)oxy)-3,5-difluorobenzyl)oxy)-2,2-dimethyl-2,3-dihydroimidazo[1,2-c]pyrimidin-5(1H)-one] were, in that order, no more than 1 nM and no more than 100 nM.
`CN1c2cc(OCc3ccc(F)c(F)c3)nc(=O)n2CC1(C)C` [Example E122, 7-((3,4-difluorobenzyl)oxy)-1,2,2-trimethyl-2-dihydroimidazo[1,2-c]pyrimidin-5(1H)-one]: the results for the IC50 (in test [1] (setting [2]); on Lp-PLA2 in human plasma) were no more than 1 nM and no more than 100 nM, respectively.
Take `[2H]C([2H])(Oc1cc2n(c(=O)n1)CC(C)(C)N2C(C)C)c1cc(F)cc(F)c1` [Example E97, 7-(dideutero(3,5-difluorobenzyl)oxy)-1-isopropyl-2,2-dimethyl-2,3-dihydroimidazo[1,2-c]pyrimidin-5(1H)-one]: the IC50 in test [1] (setting [2]) is no more than 1 nM; in test [1] (setting [3]), 0.631 nM; on Lp-PLA2 in human plasma, no more than 100 nM.
As to `CC1Cn2c(cc(OCc3ccc(F)c(C#N)c3)nc2=O)N1C` (stereo not drawn) [Example E121, 5-(((1,2-dimethyl-5-oxo-1,2,3,5-tetrahydroimidazo[1,2-c]pyrimidin-7-yl)oxy)methyl)-2-fluorobenzonitrile], the IC50 was no more than 10 nM in test [1] (setting [2]) and no more than 100 nM on Lp-PLA2 in human plasma.
For `CN1c2cc(OCc3cc(F)cc(F)c3)nc(=O)n2CC1(C)C` [Example E114, 7-((3,5-difluorobenzyl)oxy)-1,2,2-trimethyl-2,3-dihydroimidazo[1,2-c]pyrimidin-5(1H)-one], the IC50 in test [1] (setting [2]) is no more than 1 nM; in test [1] (setting [3]), 0.794 nM; on Lp-PLA2 in human plasma it was no more than 100 nM.
Turning to `CN1c2cc(OCc3ccc(F)cc3F)nc(=O)n2CC1(C)C` [Example E77, 7-((2,4-difluorobenzyl)oxy)-1,2,2-trimethyl-2,3-dihydroimidazo[1,2-c]pyrimidin-5(1H)-one], the IC50 in test [1] (setting [2]) was no more than 10 nM; at Lp-PLA2 in human plasma, no more than 100 nM.
The like results for `CC1(C)Cn2c(cc(OCc3cc(F)c(F)c(F)c3)nc2=O)N1` [Example E50, 2,2-dimethyl-7-((3,4,5-trifluorobenzyl)oxy)-2,3-dihydroimidazo[1,2-c]pyrimidin-5(1H)-one] were, in that order, no more than 1 nM and no more than 100 nM.
`CN1c2cc(OCc3cc(F)c(Oc4ccnc(C(F)(F)F)c4)c(F)c3)nc(=O)n2CC1(C)C` [Example E25, 7-((3,5-difluoro-4-((2-(trifluoromethyl)pyridin-4-yl)oxy)benzyl)oxy)-1,2,2-trimethyl-2,3-dihydroimidazo[1,2-c]pyrimidin-(1H)-one]: the IC50 in test [1] (setting [2]) is no more than 1 nM; in test [1] (setting [3]) it was 0.0794 nM; at Lp-PLA2 in human plasma, no more than 100 nM.
Turning to `CC1(C)Cn2c(cc(OCc3ccc(Oc4cncc(Cl)c4)c(F)c3)nc2=O)N1` [Example E90, 7-((4-((5-chloropyridin-3-yl)oxy)-3-fluorobenzyl)oxy)-2,2-dimethyl-2,3-dihydroimidazo[1,2-c]pyrimidin-5(1H)-one], the IC50 in test [1] (setting [2]) is no more than 1 nM; on Lp-PLA2 in human plasma, no more than 100 nM.
The like results for `C[C@H]1Cn2c(cc(OCc3ccc(Oc4ccc(F)c(F)c4)c(C#N)c3)nc2=O)N1C` [Example E88, (S)-2-(3,4-difluorophenoxy)-5-(((1,2-dimethyl-5-oxo-1,2,3,5-tetrahydroimidazo[1,2-c]pyrimidin-7-yl)oxy)methyl)benzonitrile] were, in that order, no more than 1 nM and no more than 100 nM.
As to `CN1c2cc(OCc3ccc(Oc4ccnc(F)c4)c(F)c3)nc(=O)n2CC1(C)C` [Example E29, 7-((3-fluoro-4-((2-fluoropyridin-4-yl)oxy)benzyl)oxy)-1,2,2-trimethyl-2,3-dihydroimidazo[1,2-c]pyrimidin-5(1H)-one], the IC50 is no more than 1 nM in test [1] (setting [2]), 0.2 nM in test [1] (setting [3]) and no more than 100 nM at Lp-PLA2 in human plasma.
Take `CC1Cn2c(cc(OCc3ccc(Oc4cc(F)cc(C(F)(F)F)c4)c(F)c3)nc2=O)N1C` (stereo not drawn) [Example E119, 7-((3-fluoro-4-(3-fluoro-5-(trifluoromethyl)phenoxy)benzyl)oxy)-1,2-dimethyl-2,3-dihydroimidazo[1,2-c]pyrimidin-5(1H)-one]: the results for the IC50 (in test [1] (setting [2]); at Lp-PLA2 in human plasma) were no more than 1 nM and no more than 100 nM, respectively.
For `CC(C)N1c2cc(OCc3cccc(F)c3F)nc(=O)n2CC1(C)C` [Example E46, 7-((2,3-difluorobenzyl)oxy)-1-isopropyl-2,2-dimethyl-2,3-dihydroimidazo[1,2-c]pyrimidin5(1H)-one], the IC50 in test [1] (setting [2]) was no more than 10 nM; in test [1] (setting [3]) it was 3.98 nM; at Lp-PLA2 in human plasma, no more than 100 nM.
`CC1(C)Cn2c(cc(OCc3cc(F)c(Oc4cnc(C(F)(F)F)nc4)c(F)c3)nc2=O)N1` [Example E100, 7-((3,5-difluoro-4-((2-(trifluoromethyl)pyrimidin-5-yl)oxy)benzyl)oxy)-2,2-dimethyl-2,3-dihydroimidazo[1,2-c]pyrimidin-5(1H)-one]: the IC50 in test [1] (setting [2]) was no more than 1 nM; on Lp-PLA2 in human plasma, no more than 100 nM.
As to `CN1c2cc(OCCC3CCCC3)nc(=O)n2CC1(C)C` [Example E52, 7-(2-cyclopentylethoxy)-1,2,2-trimethyl-2,3-dihydroimidazo[1,2-c]pyrimidin-5(1H)-one], the IC50 at Lp-PLA2 in human plasma is no more than 100 nM.
As for `CN1c2cc(OCCc3ccc(F)c(F)c3)nc(=O)n2CC1(C)C` [Example E117, 7-(3,4-difluorophenethoxy)-1,2,2-trimethyl-2,3-dihydroimidazo[1,2-c]pyrimidin-5(1H)-one], at Lp-PLA2 in human plasma, the IC50 was no more than 100 nM.
On the same count and under the same terms, as for `CN1c2cc(OCc3cc(F)c(F)cc3F)nc(=O)n2CC1(C)C` [Example E115, 1,2,2-trimethyl-7-((2,4,5-trifluorobenzyl)oxy)-2,3-dihydroimidazo[1,2-c]pyrimidin-5(1H)-one], the figure is no more than 100 nM.
